According to ChEMBL document CHEMBL1255476, “Telbivudine exhibits no inhibitory activity against HIV-1 clinical isolates in vitro” (Antimicrob Agents Chemother, 2010):

Legend:
[1] = system: Human immunodeficiency virus 1; experiment: Antiviral activity against HIV1 subtype D isolate 8 infected in HEK293 cells assessed as inhibition of virus replication after 72 hrs; type: functional, organism-based; conditions: Human immunodeficiency virus 1, subtype D isolate 8, HEK293, 72 h
[2] = system: Human immunodeficiency virus 1; experiment: Antiviral activity against HIV1 subtype B isolate 4 infected in HEK293 cells assessed as inhibition of virus replication after 72 hrs; type: functional, organism-based; conditions: Human immunodeficiency virus 1, HEK293, 72 h
[3] = system: Human immunodeficiency virus 1; experiment: Antiviral activity against HIV1 subtype B isolate 3 infected in HEK293 cells assessed as inhibition of virus replication after 72 hrs; type: functional, organism-based; conditions: Human immunodeficiency virus 1, subtype B isolate 3, HEK293, 72 h
[4] = system: Human immunodeficiency virus 1; experiment: Antiviral activity against HIV1 expressing reverse transcriptase D67N/K70R/T215F/K219E/M184V mutant infected in HEK293 cells assessed as inhibition of virus replication after 72 hrs; type: functional, organism-based; conditions: Human immunodeficiency virus 1, HEK293, 72 h
[5] = system: Human immunodeficiency virus 1; experiment: Antiviral activity against HIV1 expressing reverse transcriptase K103N/Y181C/G190A mutant infected in HEK293 cells assessed as inhibition of virus replication after 72 hrs; type: functional, organism-based; conditions: Human immunodeficiency virus 1, HEK293, 72 h
[6] = system: Human immunodeficiency virus 1; experiment: Antiviral activity against HIV1 subtype C isolate 6 infected in HEK293 cells assessed as inhibition of virus replication after 72 hrs; type: functional, organism-based; conditions: Human immunodeficiency virus 1, HEK293, 72 h
[7] = system: Human immunodeficiency virus 1; experiment: Antiviral activity against HIV1 subtype A isolate 1 infected in HEK293 cells assessed as inhibition of virus replication after 72 hrs; type: functional, organism-based; conditions: Human immunodeficiency virus 1, HEK293, 72 h
[8] = system: Human immunodeficiency virus 1; experiment: Antiviral activity against HIV1 subtype A isolate 2 infected in HEK293 cells assessed as inhibition of virus replication after 72 hrs; type: functional, organism-based; conditions: Human immunodeficiency virus 1, subtype A isolate 2, HEK293, 72 h
[9] = system: Human immunodeficiency virus 1; experiment: Antiviral activity against HIV1 subtype BF isolate 5 infected in HEK293 cells assessed as inhibition of virus replication after 72 hrs; type: functional, organism-based; conditions: Human immunodeficiency virus 1, subtype BF isolate 5, HEK293, 72 h
[10] = system: Human immunodeficiency virus 1; experiment: Antiviral activity against HIV1 NL4-3 infected in HEK293 cells assessed as inhibition of virus replication after 72 hrs; type: functional, organism-based; conditions: Human immunodeficiency virus 1, NL4-3, HEK293, 72 h
[11] = system: Human immunodeficiency virus 1; experiment: Antiviral activity against HIV1 subtype C isolate 7 infected in HEK293 cells assessed as inhibition of virus replication after 72 hrs; type: functional, organism-based; conditions: Human immunodeficiency virus 1, subtype C isolate 7, HEK293, 72 h
HEK293 [12] = experiment: Cytotoxicity against human HEK293 cells at 100 uM; type: cell-based; conditions: hek293, 100 µM
HEK293 [13] = experiment: Cytotoxicity against human HEK293 cells at 600 uM; type: cell-based; conditions: hek293, 600 µM
HEK293 [14] = experiment: Cytotoxicity against human HEK293 cells at 2000 uM; type: cell-based; conditions: hek293, 2000 µM
[15] = Cmax in human at 600 mg; type: ADME, organism-based; design: dose 600 mg; conditions: in vivo

C=C1[C@H](CO)[C@@H](O)C[C@@H]1n1cnc2c(=O)[nH]c(N)nc21.O [ENTECAVIR]
EC50 [1]: 7.62 µM | EC50 [2]: 13.5 µM | EC50 [3]: 15.1 µM | EC50 [4]: > 100 µM | EC50 [5]: 11.7 µM | EC50 [6]: 9.51 µM | EC50 [7]: 12.5 µM | EC50 [8]: 13.2 µM | EC50 [9]: 13.6 µM | EC50 [10]: 12.6 µM | EC50 [11]: 9.95 µM | Activity (HEK293 [12]): Non-toxic

Nc1ccn([C@@H]2CS[C@H](CO)O2)c(=O)n1 [LAMIVUDINE]
EC50 [1]: 3.25 µM | EC50 [2]: 5.43 µM | EC50 [3]: 4.78 µM | EC50 [4]: > 300 µM | EC50 [5]: 7.16 µM | EC50 [6]: 3.9 µM | EC50 [7]: 3.54 µM | EC50 [8]: 4.48 µM | EC50 [9]: 4.24 µM | EC50 [10]: 4.68 µM | EC50 [11]: 4.06 µM

Cc1cn([C@@H]2C[C@@H](O)[C@H](CO)O2)c(=O)[nH]c1=O [TELBIVUDINE]
Activity (HEK293 [13]): Non-toxic | EC50 [1]: > 600 µM | EC50 [2]: > 600 µM | Activity (HEK293 [14]): Non-toxic | EC50 [3]: > 600 µM | EC50 [4]: > 600 µM | EC50 [5]: > 600 µM | EC50 [6]: > 600 µM | EC50 [7]: > 600 µM | EC50 [8]: > 600 µM | EC50 [9]: > 600 µM | EC50 [10]: > 600 µM | EC50 [11]: > 600 µM | Cmax [15]: 13.2 µM
